Experimental data published in patent publication US8633315B2, “Substituted hydroxyethyl amine compounds as beta-secretase modulators and methods of use” (Amgen Inc., priority 2007, dated 2014).
pIC50: −log10 of the molar value. Like-named read-outs stand apart in the source and are kept apart here.

What was measured:
BACE1 = BACE1 (Homo sapiens, UniProt P56817); assay: In vitro enzymatic BACE FRET (fluorescence resonance energy transfer) assay; type: biochemical
In short: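 Fluorescence (ex 488 nm, […]) was read after Tris addition raised pH to neutral, ending a one-hour incubation. Reaction started with 50 nM fluorophore/quencher peptide substrate in pH 4.2 acetate (0.05 M) containing 100 uM genapol and 10% DMSO final.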

[1] = test system: Cells stably expressing Amyloid Precursor Protein (APP); assay: In vitro BACE cell-based assay (HEK cell assay): Aβ40 in conditioned medium by sandwich ELISA
In short: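 Secreted Aβ40 was quantified by time-resolved fluorescence sandwich ELISA, capturing with pAb40 for 3 h at 4 °C and detecting with biotinylated 6E10 for 2 h at 4 °C. Media came from APP-expressing cells exposed 24 h to compounds (10-point series from 100 or 10 μM, 0.1% DMSO); IC50 derived from percent of control.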

[2] = Homo sapiens, HEK293, 24 h, Aβ40 in conditioned medium after 24 h incubation
[3] = Aβ40 in conditioned medium after 24 h incubation

Sequence of BACE1 (P56817 46-501, species assumed): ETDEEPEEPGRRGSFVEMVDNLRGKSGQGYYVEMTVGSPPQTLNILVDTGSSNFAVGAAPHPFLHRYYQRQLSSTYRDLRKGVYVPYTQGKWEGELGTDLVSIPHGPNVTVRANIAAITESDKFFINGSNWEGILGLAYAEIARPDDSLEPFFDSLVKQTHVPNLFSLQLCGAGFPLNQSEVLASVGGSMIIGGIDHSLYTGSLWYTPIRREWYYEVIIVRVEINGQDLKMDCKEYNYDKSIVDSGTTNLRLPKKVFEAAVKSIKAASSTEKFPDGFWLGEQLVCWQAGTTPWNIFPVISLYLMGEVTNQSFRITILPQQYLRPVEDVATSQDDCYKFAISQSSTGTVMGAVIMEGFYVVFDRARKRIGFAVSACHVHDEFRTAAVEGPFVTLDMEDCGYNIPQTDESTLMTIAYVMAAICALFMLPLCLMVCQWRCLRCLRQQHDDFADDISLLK

pIC50 (BACE1) | pIC50 [1, 2] | pIC50 [1, 3] | pIC50 (BACE1; read-out: BACE 1 FRET assay) | pIC50 ([1]; Homo sapiens, HEK293) | Compound
7.17 | 6.87 |  |  |  | C=CC[C@H](NC(=O)c1cccnc1)[C@H](O)CN[C@H]1CC2(CCC2)Oc2ncc(CC(C)(C)C)cc21 [Example 96, N-((1S)-1-((1R)-2-(((4′S)-6′-(2,2-dimethylpropyl)-3′,4′-dihydrospiro[cyclobutane-1,2′-pyrano[2,3-b]pyridin]-4′-yl)amino)-1-hydroxyethyl)-3-buten-1-yl)-3-pyridinecarboxamide]
7.08 | 7.05 |  |  |  | C=CC[C@H](NC(=O)COC)[C@H](O)CN[C@H]1CC2(CCC2)Oc2c1cc(CC(C)(C)C)nc2N1CCCC1 [Example 49, N-((1S)-1-((1R)-2-(((4′S)-6′-(2,2-dimethylpropyl)-8′-(1-pyrrolidinyl)-3′,4′-dihydrospiro[cyclobutane-1,2′-pyrano[2,3-c]pyridin]-4′-yl)amino)-1-hydroxyethyl)-3-buten-1-yl)-2-(methyloxy)acetamide]
6.44 | 5.55 |  |  |  | C=CC[C@H](NC(=O)COC)[C@H](O)CN[C@H]1CC2(CCC2)Oc2c1cc(CC(C)(C)C)nc2N(C)C [Example 48, N-((1S)-1-((1R)-2-(((4′S)-8′-(dimethylamino)-6′-(2,2-dimethylpropyl)-3′,4′-dihydrospiro[cyclobutane-1,2′-pyrano[2,3-c]pyridin]-4′-yl)amino)-1-hydroxyethyl)-3-buten-1-yl)-2-(methyloxy)acetamide]
6.71 | 7.19 |  |  |  | C=CC[C@H](NC(C)=O)[C@H](O)CN[C@H]1CC2(CCC2)Oc2ncc(CC(C)(F)F)cc21 [Example 120, N-((1S)-1-((1R)-2-(((4′S)-6′-(2,2-difluoropropyl)-3′,4′-dihydrospiro[cyclobutane-1,2′-pyrano[2,3-b]pyridin]-4′-yl)amino)-1-hydroxyethyl)-3-buten-1-yl)acetamide]
7.43 |  | 7.21 |  |  | CC=CC[C@H](NC(C)=O)[C@H](O)CN[C@H]1CC2(CC(F)C2)Oc2ncc(CC(C)(C)C)cc21 (stereo partly drawn) [Example 109, N-((1S)-1-((1R)-2-(((1s,3S,4′S)-6′-(2,2-dimethylpropyl)-3-fluoro-3′,4′-dihydrospiro[cyclobutane-1,2′-pyrano[2,3-b]pyridin]-4′-yl)amino)-1-hydroxyethyl)-3-penten-1-yl)acetamide]
7.16 | 6.98 |  |  |  | CC#CC[C@H](NC(C)=O)[C@H](O)CN[C@H]1CC2(CCC2)Oc2ncc(CC(C)(C)C)cc21 [Example 86, N-((1S)-1-((1R)-2-(((4′S)-6′-(2,2-dimethylpropyl)-3′,4′-dihydrospiro[cyclobutane-1,2′-pyrano[2,3-b]pyridin]-4′-yl)amino)-1-hydroxyethyl)-3-pentyn-1-yl)acetamide]
6.56 | 5.45 |  |  |  | C=CC[C@H](NC(=O)c1c(F)cccc1F)[C@H](O)CN[C@H]1CC2(CCC2)Oc2ncc(CC(C)(C)C)cc21 [Example 72, N-((1S)-1-((1R)-2-(((4′S)-6′-(2,2-dimethylpropyl)-3′,4′-dihydrospiro[cyclobutane-1,2′-pyrano[2,3-b]pyridin]-4′-yl)amino)-1-hydroxyethyl)-3-buten-1-yl)-2,6-difluorobenzamide]
5.01 | ≤ 5.00 |  |  |  | C=C(C)C[C@H](NC(=O)c1ccc2c(c1)OC(F)(F)O2)[C@H](O)CN[C@H]1CC2(CCC2)Oc2ncc(CC(C)(C)C)cc21 [Example 101, N-((1S)-1-((1R)-2-(((4′S)-6′-(2,2-dimethylpropyl)-3′,4′-dihydrospiro[cyclobutane-1,2′-pyrano[2,3-b]pyridin]-4′-yl)amino)-1-hydroxyethyl)-3-methyl-3-buten-1-yl)-2,2-difluoro-1,3-benzodioxole-5-carboxamide]
7.11 | 6.52 |  |  |  | C=CC[C@H](NC(=O)COC(C)C)[C@H](O)CN[C@H]1CC2(CCC2)Oc2ncc(CC(C)(C)C)cc21 [Example 145, N-((1S)-1-((1R)-2-(((4′S)-6′-(2,2-dimethylpropyl)-3′,4′-dihydrospiro[cyclobutane-1,2′-pyrano[2,3-b]pyridin]-4′-yl)amino)-1-hydroxyethyl)-3-buten-1-yl)-2-((1-methylethyl)oxy)acetamide]
6.77 | 5.88 |  |  |  | C=CC[C@H](NC(=O)c1cccs1)[C@H](O)CN[C@H]1CC2(CCC2)Oc2ncc(CC(C)(C)C)cc21 [Example 128, N-((1S)-1-((1R)-2-(((4′S)-6′-(2,2-dimethylpropyl)-3′,4′-dihydrospiro[cyclobutane-1,2′-pyrano[2,3-b]pyridin]-4′-yl)amino)-1-hydroxyethyl)-3-buten-1-yl)-2-thiophenecarboxamide]
 |  |  | 5.42 | 6.16 | C=CC[C@H](NC(=O)C1COC(c2ccccn2)O1)[C@H](O)CNC1CC2(CCC2)Oc2ncc(CC(C)(C)C)cc21 (stereo partly drawn) [compound 242, N-((1S)-1-((1R)-2-((6′-(2,2-dimethylpropyl)-3′,4′-dihydrospiro[cyclobutane-1,2′-pyrano[2,3-b]pyridin]-4′-yl)amino)-1-hydroxyethyl)-3-buten-1-yl)-2-(2-pyridinyl)-1,3-dioxolane-4-carboxamide]
6.32 | 6.59 |  |  |  | C=CC[C@H](NC(=O)c1cccnc1OC)[C@H](O)CN[C@H]1CC2(CCC2)Oc2ncc(CC(C)(C)C)cc21 [Example 65, N-((1S)-1-((1R)-2-(((4′S)-6′-(2,2-dimethylpropyl)-3′,4′-dihydrospiro[cyclobutane-1,2′-pyrano[2,3-b]pyridin]-4′-yl)amino)-1-hydroxyethyl)-3-buten-1-yl)-2-(methyloxy)-3-pyridinecarboxamide]
7.92 | 8.40 |  |  |  | C=CCC(NC(=O)C1CN(C(=O)N2CCCCC2)CCO1)C(O)CNC1CC2(CCC2)Oc2ncc(CC(C)(C)C)cc21 (stereo not drawn) [Example 152]
7.20 | 6.67 |  |  |  | C=CC[C@H](NC(C)=O)[C@H](O)CN[C@H]1C[C@]2(CC[C@@H]2O)Oc2ncc(CC(C)(C)C)cc21 [Example 51, N-((1S)-1-((1R)-2-(((1S,2S,4′S)-6′-(2,2-dimethylpropyl)-2-hydroxy-3′,4′-dihydrospiro[cyclobutane-1,2′-pyrano[2,3-b]pyridin]-4′-yl)amino)-1-hydroxyethyl)-3-buten-1-yl)acetamide]
6.52 | 6.38 |  |  |  | C=CC[C@H](NC(=O)c1ccn(C)n1)[C@H](O)CN[C@H]1CC2(CCC2)Oc2ncc(CC(C)(C)C)cc21 [Example 132, N-((1S)-1-((1R)-2-(((4′S)-6′-(2,2-dimethylpropyl)-3′,4′-dihydrospiro[cyclobutane-1,2′-pyrano[2,3-b]pyridin]-4′-yl)amino)-1-hydroxyethyl)-3-buten-1-yl)-1-methyl-1H-pyrazole-3-carboxamide]
7.96 | 7.74 |  |  |  | CC(=O)N[C@@H](CC=C1CCC1)[C@H](O)CN[C@H]1CC2(CCC2)Oc2ncc(CC(C)(C)C)cc21 [Example 83, N-((1S,2R)-1-(2-cyclobutylideneethyl)-3-(((4′S)-6′-(2,2-dimethylpropyl)-3′,4′-dihydrospiro[cyclobutane-1,2′-pyrano[2,3-b]pyridin]-4′-yl)amino)-2-hydroxypropyl)acetamide]
7.09 | 7.07 |  |  |  | C=CC[C@H](NC(C)=O)[C@H](O)CN[C@H]1CC2(CCC2)Oc2ncc(CC(C)C)cc21 [Example 38, N-((1S)-1-((1R)-1-hydroxy-2-(((4′S)-6′-(2-methylpropyl)-3′,4′-dihydrospiro[cyclobutane-1,2′-pyrano[2,3-b]pyridin]-4′-yl)amino)ethyl)-3-buten-1-yl)acetamide]
6.40 | 5.94 |  |  |  | C=CC[C@H](NC(=O)OCc1cncs1)[C@H](O)CN[C@H]1CC2(CCC2)Oc2ncc(CC(C)(C)C)cc21 [Example 105, 1,3-thiazol-5-ylmethyl ((1S)-1-((1R)-2-(((4′S)-6′-(2,2-dimethylpropyl)-3′,4′-dihydrospiro[cyclobutane-1,2′-pyrano[2,3-b]pyridin]-4′-yl)amino)-1-hydroxyethyl)-3-buten-1-yl)carbamate]
6.86 |  | 6.62 |  |  | C=CCC(NC(=O)C1CC1OCC)C(O)CNC1CC2(CCC2)Oc2ncc(CC(C)(C)C)cc21 [Example 154, (1R,2S)-N-((1S)-1-((1R)-2-(((4′S)-6′-(2,2-dimethylpropyl)-3′,4′-dihydrospiro[cyclobutane-1,2′-pyrano[2,3-b]pyridin]-4′-yl)amino)-1-hydroxyethyl)-3-buten-1-yl)-2-(ethyloxy)cyclopropanecarboxamide; (1S,2R)-N-((1S)-1-((1R)-2-(((4′S)-6′-(2,2-dimethylpropyl)-3′,4′-dihydrospiro[cyclobutane-1,2′-pyrano[2,3-b]pyridin]-4′-yl)amino)-1-hydroxyethyl)-3-buten-1-yl)-2-(ethyloxy)cyclopropanecarboxamide]
7.08 | 6.60 |  |  |  | C=CC[C@H](NC(=O)COC)[C@H](O)CN[C@H]1CC2(CCC2)Oc2ncc(CC(C)(C)CF)cc21 [Example 80, N-((1S)-1-((1R)-2-(((4′S)-6′-(3-fluoro-2,2-dimethylpropyl)-3′,4′-dihydrospiro[cyclobutane-1,2′-pyrano[2,3-b]pyridin]-4′-yl)amino)-1-hydroxyethyl)-3-buten-1-yl)-2-(methyloxy)acetamide]
6.70 | 6.91 |  |  |  | C=CC[C@H](NC(C)=O)[C@H](O)CN[C@H]1CC2(CCC2)Oc2ncc(C[C@@H](C)C(F)(F)F)cc21 [Example 125, N-((1S)-1-((1R)-1-hydroxy-2-(((4′S)-6′-((2R)-3,3,3-trifluoro-2-methylpropyl)-3′,4′-dihydrospiro[cyclobutane-1,2′-pyrano[2,3-b]pyridin]-4′-yl)amino)ethyl)-3-buten-1-yl)acetamide]
